These results are taken from patent US9155751B2, “Solution for tissue adhesion prevention and method for tissue adhesion prevention” (THE UNIVERSITY OF TOKYO, priority 2005, dated 2015).

In one data set the test system is HepG2 cells. As to the kind of experiment: HepG2 cell survival after air-dry (neutral red absorbance). It is filed as cell-based, human. To be noted: for cell survival rate: activated with sample solution 37 degrees C 1 hour, air-dry 3 minutes, control plate without air-dry = 100%; for cell survival rate in control plates (effect of each reagent on cells): air-dry not performed, control plate for PBS (+) = 100%; for cell protection effect: plates air-dried for 3 minutes. The procedure:
As cells, HepG2 cells (human hepatoma-derived cell lines) were used.
For all reagents other than HepG2 cells, AA-2G, trehalose, DMEM media, FCS, neutral red, reagent grade chemicals were used. In addition, as sample solution in which HepG2 cells were activated, 4 kinds of solution; PBS (+) solution, 2.5 mM AA-2G solution, 132 mM trehalose solution, 2.5 mM AA-2G+132 mM trehalose mixed solution were prepared.
A reagent ascorbic acid-2-glucoside (AA2G; Hayashihara Biochemical Labs., Inc.) was dissolved in distilled water to obtain 2.5 mM AA-2G solution. And a highly purified hydrated crystal trehalose in powder (Reagent trehalose; Hayashihara Biochemical Labs., Inc.) was dissolved in distilled water to obtain 132 mM trehalose solution. The reagents ascorbic acid-2-glucoside and the highly purified hydrated crystal trehalose in powder were dissolved in distilled water to obtain 2.5 mM AA-2G+132 mM trehalose mixed solution. Then, pH and osmolarity of these 4 kinds of sample solutions were adjusted. Adjustment of osmolarity of 2.5 mM AA-2G solution, 132 mM trehalose solution, 2.5 mM AA-2G+132 mM trehalose mixed solution was performed by adjusting with sodium chloride of PBS (+) to be isotonic.
The pH and osmolarity of each sample after adjustment were as follows; pH 7.2 and 279 mOsm for PBS (+) solution, pH 6.8 and 265 mOsm for 2.5 mM AA-2G solution, pH 7.2 and 283 mOsm for 132 mM trehalose solution and pH 7.0 and 282 mOsm for 2.5 mM AA-2G+132 mM trehalose mixed solution.
Then, HepG2 cells were seeded with 4×10^4 cells/well each to four 12-well plates, and incubated in DMEM media (Nissui Pharmaceutical Co., Ltd) containing 10% FCS (Gibco) for 4 days. Then the DMEM media containing 10% FCS were replaced with 4 kinds of sample solutions; PBS (+) solution, 2.5 mM AA-2G solution, 132 mM trehalose solution, 2.5 mM AA-2G+132 mM trehalose mixed solution, and activated at 37 degrees C. for 1 hour.
Two control plates and two test plates were prepared for cells activated with 4 kinds of sample solutions, respectively. For each two test plates, one plate was air-dried for 5 minutes and other plate was air-dried for 3 minutes. The two control plates were not air-dried.
Then, cells of each plate was replaced with no serum DMEM media and incubated at 37 degrees C. for 1 hour. After replacing with 0.02% neutral red (Wako Pure Chemical Industries, Ltd, hereinafter referred to NR), they were activated at 37 degrees C. for 40 minutes. After removal of NR solution and addition of PBS (+), they were left to stand at 37 degrees C. for 40 minutes, PBS (+) was removed and they were air-dried for 5 minutes. They were added NR extracts and left to stand at 37 degrees C. for 10 minutes, then each sample was distributed over 96-well plate and the absorbance at the wavelength of 570 nm was measured.
The absorbance of the control plates to which air-dry was not performed was considered as cell survival rate of 100%, and the cell survival rate of the test plates to which air-dry was performed for 3 minutes was calculated. The results are shown in the graph indicating changes in cell survival rate by air-dry in FIG. 1.
Also, the cell survival rates of control plates for each sample solution to which air-dry was not performed were calculated. The results are shown in the graph indicating the effect of each reagent on cells in FIG. 2.

Data set [1] deals with abdominal adhesion model using rabbits. The data set is described as follows: Rabbit abdominal adhesion model by desiccating intestine surface during abdominal surgery (Example 2). It is filed as in vivo, New Zealand White rabbits. To be noted: for Clinical findings: 2% trehalose solution sprayed on whole intestines several times during laparotomy. As for the experimental part:
In this example, abdominal adhesion model was prepared using rabbits by desiccating surface of intestines during abdominal surgery, and the preventive effect of intestine adhesion by trehalose was discussed.
As trehalose, powder trehalose (Reagent trehalose; Hayashihara Biochemical Labs., Inc.) and ^+NaCl were dissolved in sterile distilled water of 250 mL as 2%; solution, sterilized by filtration with filter (Millex; Millpore Co., Bedford) and poured to sterile container and stored at room temperature. As test animals, five female New Zealand White rabbits weighing 2.85 to 3.2 kg aged of 14 weeks (Std:NZW, Japan SLC, Inc., Shizuoka) were used. The rabbits were kept in animal laboratory (room temperature of 24+/−1 degrees C., humidity of 30 to […]) in The University of Tokyo, Graduate School of Agricultural and Life Sciences Veterinary Medical Center. The rabbits were acclimatized for 1 week after purchase, and during this period blood test (complete blood count, BUN, Cre, ALT, ALP) and general x-ray test were performed to confirm that abnormality was not present. The experiment of this example was performed according to the Manual of animal experiment of University of Tokyo.
(§1) The experiment of this example was performed as follows.
(§2) As anesthesia, 5 mg/kg of ketamine (KETALAL 50; Sankyo Lifetech Co., Ltd., Tokyo) and 0.1 mg/kg of medetomidine (DOMITOL; Meiji Seiyaku Co., Ltd., Tokyo) were intramuscularly injected as preoperative medication, and after intubation maintained with isoflurane (ISOFLU; Dainippon Pharmaceutical Co., Ltd., Osaka). Before operation, 10 mg/kg of enrofloxacin (BAYTRIL; Bayer Medical Ltd., Tokyo) was subcutaneously administered as antibiotics, and during operation 10 mL/kg/hr of lactated Ringer's solution (FUSO; Fuso Pharmaceutical Industries, Ltd., Osaka) was intravenously administered, After operation, single dose of 20 μg/kg of buprenorphine (LEPETAN; Otsuka Pharmaceutical Co., Ltd., Tokyo) as analgesics was subcutaneously administered. During anesthesia, ECG, ETCO2 and SpO2 were monitored and maintained within their normal variations.
Three rabbits among the five rabbits were randomized to the control group, and the other two rabbits were classified into the trehalose group. For the five rabbits, after disinfection of operative field, abdominal median incision was performed and intestines were exposed as far as possible and serum was wiped with gauze. For control group (three rabbits) they were left desiccated and for trehalose group (two rabbits) whole intestines were sprayed with trehalose for several times. During this period, ovariohysterectomy was performed according to given method. The time period of laparotomy was 30 to 60 minutes for both groups. The 3-0 monofilament nylon fiber (Bear surgical suture; Bear Medic Corporation, Chiba) was used for ovariohysterectomy and closure of abdominal wall, and the 4-0 monofilament polyglyconate fiber (MAXON; Syneture Co., Ltd., Connecticut) was used for subcutaneous tissues and stapler (Manipler AZ-35W; Mani Inc., Tochigi) was used for skin suture. After operation, general condition and wounds were observed and they were killed by overdose of pentobarbital after 2 weeks. The adhesion status in peritoneal cavity was macroscopically observed and recorded as well as tissues of adhesion sites were removed as pathohistological test material and fixed in formalin.
The clinical findings after 2 weeks and the macroscopic findings of adhesion status after laparotomy of each case are shown in Table 1.

For data set [2] the test system is unchanged. The data set is described as follows: Rabbit abdominal adhesion model by desiccating intestine surface during abdominal surgery (Example 3). Format: in vivo, New Zealand White rabbits. Also noted: key to Adhesion sites: greater omentum - rectum / Adhesion sites: greater omentum - stomach / Adhesion sites: greater omentum - small intestine / Adhesion sites: small intestine - rectum / Adhesion sites: abdominal wall - bladder / Adhesion sites: abdominal wall - fat / Adhesion sites: colon-fat / Adhesion sites: jejunum - abdominal wall / Adhesion sites: cecum - colon: non-adhesion: −; Adhesions of mild degree (abruption enabled): +; Adhesions of severe degree (abruption enabled): ++; Score-Total: scale not given here. As for the experimental part:
In this example, abdominal adhesion model was prepared using rabbits by desiccating surface of intestines during abdominal surgery, and the preventive effect on intestine adhesion by trehalose was discussed.
As trehalose, powder trehalose (Reagent trehalose; Hayashihara Biochemical Labs., Inc.) were dissolved in sterile distilled water of 250 mL as 7% solution, sterilized by filtration with filter (Millex; Millpore Co., Bed ford) and poured to sterile container and stored at room temperature.
As test animals, 20 female New Zealand White rabbits weighing 2.6 to 3.2 kg aged of 14 weeks (Std:NZW, Japan SLC, Inc., Shizuoka) were used. The rabbits were kept in animal laboratory (room temperature of 24+/−1 degrees C., humidity of 30 to 70%) in The University of Tokyo, Graduate School of Agricultural and Life Sciences Veterinary Medical Center. The rabbits were acclimatized for 1 week after purchase, and during this period blood test (complete blood count, BUN, Cre, ALT, ALP) and general x-ray test were performed to confirm that abnormality was not present. The experiment of this example was performed according to the Manual of animal experiment of The University of Tokyo.
as §1
as §2, with “Seiyaku Ca,” for “Seiyaku Co.,”, “isoflurane (SOFLU” for “isoflurane (ISOFLU;”, “intravenously administered.” for “intravenously administered,”, “administered.” for “administered. During anesthesia, ECG, ETCO2 and SpO2 were monitored and maintained within their normal variations.”
During anesthesia, ECG, ETCO2 and SpO2 were monitored and maintained within their normal variations.
For the 20 rabbits, after disinfection of operative field, abdominal median incision was performed and intestines were exposed as far as possible and serum was wiped with gauze. Total ovariohysterectomy performed according to given method. Four section of ovarion arteries and veins were severed after being ligated with 4-0 mono filament polyglyconate suture (MAXON; Syneture Co., Ltd., Connecticut). Also, uterovaginal stump were sutured with 5-0 mono filament polyglyconate suture (MAXON; Syneture Co., Ltd., Connecticut), the 3-0 mono filament polyglyconate suture (MAXON; Syneture CO., Ltd., Connecticut) was used for closure of abdominal wall, and the 4-0 mono filament polyglyconate suture (MAXON; Syneture Co., Ltd., Connecticut) was used for subcutaneous tissues and stapler (ManiplerAZ-35W; Mani Inc., Tochigi) was used for skin suture.
Ten rabbits among the twenty rabbits were randomized to the control group, and the other ten rabbits were classified into the trehalose group.
The control group (10 rabbits) was left desiccated. The time period of laparotomy was 60 minutes.
For the trehalose group, trehalose solution was sprayed over the whole abdominal cavities every 15 minutes (0 minutes, 15 minutes, 30 minutes, 45 minutes, 60 minutes after starting the operation). The time period of laparotomy was 60 minutes. After operation, general condition and wounds were observed and rabbits were euthanized by excessive administration of pentobarbital two weeks after the operations.
The adhesion status in peritoneal cavity was macroscopically observed and recorded as well as tissues of adhesion sites were removed as pathohistological test materials and fixed in formalin. The clinical findings after 2 weeks and the macroscopic findings of adhesion status after laparotomy of each case are shown in Table 2.

The mark [3] stands for this setting: 2% trehalose solution sprayed on whole intestines, macroscopic, 2 weeks after operation, individual rabbits.
[4] abbreviates: 7% trehalose solution sprayed every 15 minutes, 60 min laparotomy, 2 weeks after, individual rabbits No. 1-10.

Values joined by “and” are separate entries in the source; they are usually repeats but may differ in a detail not shown here. Equal values may be shown once. “Also recorded” adds a separate entry of the source.

For the molecule `O=C1O[C@H]([C@@H](O)CO)C(O)=C1O[C@H]1O[C@H](CO)[C@@H](O)[C@H](O)[C@H]1O` [2.5 mM AA-2G solution, ascorbic acid-2-glucoside], in the data set with HepG2 cells, the cell survival rate is reported as 61.8%; the “cell survival rate in control plates (effect of each reagent on cells)” value was 101.6% and 101.5%; the cell protection effect entry is “the cell protection effect was not observed”.

With `OC[C@H]1O[C@H](O[C@H]2O[C@H](CO)[C@@H](O)[C@H](O)[C@H]2O)[C@H](O)[C@@H](O)[C@@H]1O` [Trehalose, trehalose], the Clinical findings entry in data set [1] (2 weeks after operation, individual rabbits) is “Partial dehiscence; also recorded: No abnormal findings”. For the same molecule, in data set [1] (2 weeks after operation, individual rabbits, listed as trehalose), the Clinical findings result is “a part of skin suture site was removed and showed ulcer in 1 case”. Further, in data set [1] (setting [3]), the “Findings after laparotomy: Adhesion of stump of uterus” value is “Present”; the “Findings after laparotomy: Adhesion sites in intestines” value is 2 sites of adhesion and No significant. In addition, the “Findings after laparotomy: Adhesion sites in intestines” value in data set [1] (2% trehalose solution sprayed on whole intestines, macroscopic, 2 weeks after operation, individual rabbits, listed as trehalose) is 2 sites of mild adhesion were suspected in 1 rabbit and no significant adhesion was macroscopically observed. For the same molecule, the “prevention of abdominal adhesion due to desiccation (conclusion)” value in data set [1] (spray of 2% trehalose solution) is reported as “would be effective for prevention of abdominal adhesion due to desiccation”. In data set [2] (7% trehalose solution spray, 10 rabbits, control 6 of 10), the “cases with adhesions of mild and severe degree between abdominal organs” value is reported as 2 of 10. Also, in data set [2] (7% trehalose solution spray, 10 rabbits, control group +16), the “adhesion scores between organs (group)” value was “+3”. Further, in data set [2] (setting [4]), the “Adhesion sites: abdominal wall - bladder” value was “−”; the “Adhesion sites: abdominal wall - fat” value is “−”; the “Adhesion sites: cecum - colon” value was “+ and − (9×)”; the “Adhesion sites: colon-fat” value is reported as “−”. In data set [2] (setting [4]), the “Adhesion sites: greater omentum - rectum” value is “−”, the “Adhesion sites: greater omentum - small intestine” value is reported as “−”, the “Adhesion sites: greater omentum - stomach” value is given as “−” and the “Adhesion sites: jejunum - abdominal wall” value is “−”. Further, the “Adhesion sites: small intestine - rectum” value in data set [2] (setting [4]) is “− (9×) and ++”. In addition, the Score-Total in data set [2] (adhesion score per rabbit, 7% trehalose solution spray, individual rabbits No. 1-10) is 1 and 0 (8×) and 2. Besides, the “prevention of abdominal adhesion due to desiccation (conclusion)” value in data set [2] (spray of 7% trehalose solution) is “can obviously prevent and reduce adhesions”. Besides, the prevention ratio in data set [2] (trehalose group versus control group adhesion score, Wilcoxon rank-sum test p<0.05) was 81%. In the data set on HepG2 cells, the cell survival rate is 70.7% and the cell protection effect result was “the cell protection effect was observed”. Besides, in the data set on HepG2 cells (listed as 132 mM trehalose solution), the “cell survival rate in control plates (effect of each reagent on cells)” value was 97.6% and 97.7%.
